Test results from patent US20150093451A1, “METHOD OF INCREASING ENERGY EXPENDITURE” (Reoxcyn Discoveries Group, Inc., priority 2007, published 2015).

Tested on: NRF2
Assay: Western Blot validation of NRF2 nuclear accumulation and extra-nuclear protein phosphorylation
Format: cell-based, human
Protocol: 8. A Western Blot analysis was done on extra-nuclear and intra-nuclear fractions, separated by differential centrifugation, of serum starved HMVEC-L cell cultures exposed to <1% of a composition of the invention compared with a positive hydrogen peroxide control to determine phosphorylation events (oxidant action) in the extra-nuclear fraction and NRF2 (antioxidant transcription) in the intra-nuclear fraction at 0, 30, 60, 90 and 120 min intervals.
HMVEC-L were treated with 1% of a composition of the invention, nuclear extracts were separated through centrifugal differentiation from the extra-nuclear cytosol at 30, 60 and 120 min and subjected to Western Blot analysis for NRF2. In the Western blot experiment the extra-nuclear fraction was probed for phosphorylated proteins using a combination of anti-phospho serine, threonine and tyrosine antibodies. Virtually all cellular processes are regulated by posttranslational modifications and protein phosphorylation is a prevalent mechanism. Observable changes in protein phosphorylation can lead to a mechanistic understanding of the cellular processes perturbed by compositions of the invention and provide a defined endpoint to better define dose-dependent regulation of cell function by compositions of the invention in vitro, as well as provide a potential candidate molecular marker that may be used to provide in vitro-in vivo correlates. […]

SMILES: OO [H2O2, Hydrogen peroxide]
- phosphorylation of extra-nuclear protein (HMVEC-L extra-nuclear fraction, 1% composition, H2O2 positive control): marked increase in the phosphorylation
- NRF2 levels in nuclear extracts (HMVEC-L, 1% ASEA 30, 60, 120 min, H2O2 30 min): did not increase nuclear NRF2 levels
